Holding throughout (assay): Bliss excess, mean over the matrix (fraction); higher = more synergy
Test [1] has as its system A3-KAW (B-Cell Non-Hodgkin's Lymphoma). The gist of the method:
(§1)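 Cell lines in DMEM/F12 or RPMI with 10% FBS were plated in 1536-well plates, held 24 hours at 37°C, 5% CO2, then given two-drug dose matrices for 72 hours (DMSO typically 0.2%). Viability was read by CellTiter-Glo 2.0 luminescence and scaled as inhibition from 0 (vehicle wells) to 1 (blank wells). Combination Emax is the second-highest inhibition in the matrix; Bliss excess is observed combination effect minus expected EA + EB − EA·EB, EA and EB being single-agent effects.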

For the next test, the system named is A498 (Kidney Carcinoma). The gist of the method:
as §1

In test [2] the test system is A549 (Lung Adenocarcinoma). The gist of the method:
as §1

Test [3] deals with BICR22 (Oral Cavity Carcinoma). The gist of the method:
as §1

The test system of test [4] is CAPAN-2 (Pancreatic Carcinoma). The gist of the method: as §1
The test system of test [5] is CCK-81 (Colorectal Carcinoma). The method, boiled down: as §1
Test [6] has as its system COLO-824 (Breast Carcinoma). The gist of the method: as §1
In test [7] the test system is COR-L311 (Small Cell Lung Carcinoma). The method, boiled down: as §1
For test [8], the system named is ECC10 (Gastric Carcinoma). The method, boiled down:
as §1

The test system of another test is FU97 (Gastric Carcinoma). The gist of the method:
as §1

A further test has as its system Hs-445 (Non-Cancerous). The gist of the method: as §1
Test [9] concerns JSC-1 (B-Cell Non-Hodgkin's Lymphoma). The gist of the method: as §1
Test [10] deals with KARPAS-422 (B-Cell Non-Hodgkin's Lymphoma). The gist of the method:
as §1

The next test concerns LN-405 (Glioblastoma). The gist of the method:
as §1

In test [11] the test system is NCI-H1650 (Lung Adenocarcinoma). The gist of the method: as §1
Test [12] concerns NCI-H1666 (Lung Adenocarcinoma). The gist of the method: as §1
The subject of test [13] is NCI-H64 (Small Cell Lung Carcinoma). The gist of the method:
as §1

For test [14], the system named is ONS-76 (Other Solid Carcinomas). The method, boiled down:
as §1

The next test has as its system PA-1 (Ovarian Carcinoma). The gist of the method:
as §1

For test [15], the system named is SK-MES-1 (Squamous Cell Lung Carcinoma). The method, boiled down: as §1

As to `CCN(CCO)CCCOc1ccc2c(Nc3cc(CC(=O)Nc4cccc(F)c4)[nH]n3)ncnc2c1` [AZD2811] + O=C(c1cc(Cc2n[nH]c(=O)c3ccccc23)ccc1F)N1CCN(C(=O)C2CC2)CC1 [Olaparib] (first compound max 1 µM, 7x7, partner max 10 µM), the Bliss excess is 0.0053 in [1]; -0.0656 in the test on A498 (Kidney Carcinoma); -0.0061 in test [2]; -0.0861 in test [3]; -0.0222 in test [4]; 0.032 in [5]. For the same molecule, the Bliss excess in test [6] is -0.0071; in test [7], -0.0088; in test [8] it was -0.107; with FU97 (Gastric Carcinoma), -0.0269; in the test on Hs-445 (Non-Cancerous) it was 0.0459; in test [9] it was 0.0145. The Bliss excess in [10] was 0.0267; in the test with LN-405 (Glioblastoma) it was -0.0224; in test [11] it was -0.025; in test [12], -0.0746; in [13], 0.0589; in [14], -0.0103. Further, the Bliss excess in the test with PA-1 (Ovarian Carcinoma) is 0.0873; in test [15] it was -0.0127.

On to `CN(CCO)CC[C@H](CSc1ccccc1)Nc1ccc(S(=O)(=O)NC(=O)c2ccc(N3CCC([C@@H](O)c4ccccc4-c4ccc(Cl)cc4)CC3)cc2)cc1S(=O)(=O)C(F)(F)F` [AZD4320] + C1CN(CCC1(C(=O)N[C@@H](CCO)C2=CC=C(C=C2)Cl)N)C3=NC=NC4=C3C=CN4 [Capivasertib] (first compound max 1 µM, 7x7, partner max 3 µM), for which the Bliss excess was -0.0211 in test [1]; -0.0049 in the test on A498 (Kidney Carcinoma); -0.0589 in test [2]; 0.0051 in test [3]; -0.0534 in test [4]; -0.0258 in [5]. Also, the Bliss excess was -0.0103 in [6]; 0.0397 in [7]; -0.0312 in [8]; 0.0069 in the test on FU97 (Gastric Carcinoma); 0.0455 in the test on Hs-445 (Non-Cancerous); -0.0187 in [9]. The Bliss excess in [10] was 0.0401; with LN-405 (Glioblastoma), -0.0454; in [11] it was -0.0427; in [12], -0.0491; in test [13] it was -0.028; in test [14], -0.0469. Moreover, the Bliss excess in the test on PA-1 (Ovarian Carcinoma) was 0.0592; in test [15], -0.0608.

With `CN(CCO)CC[C@H](CSc1ccccc1)Nc1ccc(S(=O)(=O)NC(=O)c2ccc(N3CCC([C@@H](O)c4ccccc4-c4ccc(Cl)cc4)CC3)cc2)cc1S(=O)(=O)C(F)(F)F` [AZD4320] + C=CCn1c(=O)c2cnc(Nc3ccc(N4CCN(C)CC4)cc3)nc2n1-c1cccc(C(C)(C)O)n1 [AZD1775] (first compound max 1 µM, partner max 1 µM), the Bliss excess in [1] was 0.0279; in the test on A498 (Kidney Carcinoma) it was 0.0368; in test [2], -0.0429; in test [3], 0.0848; in [4], 0.0665; in test [5], -0.0198. Moreover, the Bliss excess in test [6] was 0.0803; in test [7], -0.0091; in test [8] it was 0.136; in the test with FU97 (Gastric Carcinoma), -0.0315; with Hs-445 (Non-Cancerous) it was 0.165; in test [9] it was -0.0077. The Bliss excess was 0.0569 in test [10]; 0.0173 in the test with LN-405 (Glioblastoma); -0.0096 in test [11]; -0.0717 in test [12]; 0.0886 in [13]; -0.0196 in test [14]. Also, the figures for the Bliss excess (in the test on PA-1 (Ovarian Carcinoma); in [15]) were 0.0773 and 0.0356, respectively.

`CN(CCO)CC[C@H](CSc1ccccc1)Nc1ccc(S(=O)(=O)NC(=O)c2ccc(N3CCC([C@@H](O)c4ccccc4-c4ccc(Cl)cc4)CC3)cc2)cc1S(=O)(=O)C(F)(F)F` [AZD4320] + CCN(CCO)CCCOc1ccc2c(Nc3cc(CC(=O)Nc4cccc(F)c4)[nH]n3)ncnc2c1 [AZD2811] (first compound max 1 µM, 7x7, partner max 1 µM): the Bliss excess in [1] is 0.0628; in the test on A498 (Kidney Carcinoma) it was -0.0371; in test [2], -0.149; in test [3] it was 0.0119; in test [4] it was 0.0013; in test [5] it was -0.0345. For the same molecule, the Bliss excess was 0.0272 in [6]; 0.0249 in [7]; 0.0193 in test [8]; -0.0531 with FU97 (Gastric Carcinoma); 0.175 with Hs-445 (Non-Cancerous); 0.0215 in test [9]. The Bliss excess in test [10] is 0.14; in the test with LN-405 (Glioblastoma), 0.014; in test [11], -0.0164; in [12] it was -0.0283; in test [13], 0.158; in test [14] it was 0.0817. Besides, the Bliss excess is 0.0664 in the test on PA-1 (Ovarian Carcinoma) and -0.0328 in test [15].

In the case of `CN(CCO)CC[C@H](CSc1ccccc1)Nc1ccc(S(=O)(=O)NC(=O)c2ccc(N3CCC([C@@H](O)c4ccccc4-c4ccc(Cl)cc4)CC3)cc2)cc1S(=O)(=O)C(F)(F)F` [AZD4320] + CN(C)CCCOc1ccc(-c2ccc3ncc4c(c3c2)n(C2CCOCC2)c(=O)n4C)cn1 [AZD0156] (first compound max 1 µM, 7x7, partner max 1 µM), the Bliss excess in [1] is -0.0197; in the test with A498 (Kidney Carcinoma), -0.0358; in [2], -0.039; in [3] it was -0.0364; in [4], -0.033; in test [5], -0.0009. For the same molecule, the Bliss excess in test [6] was 0.0031; in test [7], 0.0177; in [8], 0.0096; with FU97 (Gastric Carcinoma) it was -0.0303; in the test on Hs-445 (Non-Cancerous), -0.0732; in test [9], -0.0076. Moreover, the Bliss excess in test [10] is 0.0093; with LN-405 (Glioblastoma) it was 0.0093; in [11], -0.0443; in test [12], -0.0508; in [13], 0.0003; in test [14] it was -0.0494. Further, the Bliss excess in the test with PA-1 (Ovarian Carcinoma) was -0.0528; in test [15] it was -0.005.

Regarding `CN(CCO)CC[C@H](CSc1ccccc1)Nc1ccc(S(=O)(=O)NC(=O)c2ccc(N3CCC([C@@H](O)c4ccccc4-c4ccc(Cl)cc4)CC3)cc2)cc1S(=O)(=O)C(F)(F)F` [AZD4320] + C[C@@H]1COCCN1C2=NC(=NC(=C2)C3(CC3)[S@](=N)(=O)C)C4=C5C=CNC5=NC=C4 [AZD6738] (first compound max 1 µM, 7x7, partner max 10 µM), the Bliss excess was -0.0229 in test [1]; -0.157 in the test on A498 (Kidney Carcinoma); -0.0778 in test [2]; -0.0433 in test [3]; -0.0461 in [4]; -0.0546 in test [5]. In addition, the Bliss excess is -0.0365 in test [6]; -0.0005 in [7]; -0.0256 in test [8]; -0.0215 in the test with FU97 (Gastric Carcinoma); 0.0592 in the test with Hs-445 (Non-Cancerous); -0.0276 in [9]. Besides, the Bliss excess is 0.0896 in test [10]; 0.0063 in the test on LN-405 (Glioblastoma); 0.0045 in test [11]; -0.0645 in [12]; -0.0404 in test [13]; -0.0386 in test [14]. Besides, the Bliss excess in the test on PA-1 (Ovarian Carcinoma) is 0.0242; in test [15], 0.0228.

(Values after the supplement of paper PMC11061612.)
